Source: paper PMC5382548 (Scientific Reports, 2015)
Where two headings read alike, the source gives them in different places.

Key:
[1] = system: HCT116 (colon); experiment: MTS short-term cytotoxicity assay, HCT116; type: cell-based, human
Description: (§1) Short-term anti-proliferative assays were carried out by two different assays using a panel of human cancer and non-malignant human cell lines. […] The transformed human embryonic kidney cell line HEK293T (wt KRAS) was sensitive to all tested drugs, including TMPyP4, a cationic porphyrin established as a G4 ligand, as well as the anticancer drug 5-fluorouracil (5-FU).
HCT116 human colon carcinoma cells, SW620 human colorectal adenocarcinoma and HEK293 T human embryonic kidney cells were grown in Dulbecco's modified Eagle's medium (DMEM) supplemented with 10% fetal bovine serum, and 1% antibiotic/antimycotic (Invitrogen, Grand Island, NY, USA) and maintained at 37°C in a humidified atmosphere of 5% CO2. Cells were seeded in 96 well plates at 5.000 cells/well. Twenty-four hours after cell plating, media was removed and replaced with fresh media containing test compounds and 5-FU (Sigma), a common cytotoxic agent used in colon cancer treatmen, or vehicle control (DMSO). Following 72 h of compound exposure, cell viability was evaluated using the CellTiter 96 AQueous Non-Radioactive Cell Proliferation Assay (Promega, Madison, WI, USA), using 3-(4,5-dimethylthiazol-2-yl)-5-(3-carboxymethoxyphenyl)-2-(4-sulfophenyl)-2H-tetrazolium, inner salt (MTS) as previously described. Cell viability data were expressed as mean ± SEM or mean ± SD from at least three independent experiments. IC50 and IC65 values were determined using GaphPad Prism v.5.00 (GraphPad Software). (Performed at Cell Function and Therapeutic Targeting Group, iMed.ULisboa)

[2] = system: ALT (telomerase negative human lung fibroblast); experiment: SRB short-term cytotoxicity assay, ALT; type: cell-based; conditions: 96 h
Description: as §1
Human cell lines, breast carcinoma (MCF7), lung carcinoma (A549), pancreatic cancer (MIA PaCa2, Panc-1), immortalised telomerase-negative human lung fibroblast (ALT) and normal human lung fibroblast (WI-38), were all purchased from American Type Cell Culture (ATCC). Cell lines were maintained in appropriate medium supplemented with 10% fetal bovine serum (Invitrogen, UK), 2 mM L-glutamine (Invitrogen, Netherlands), and other components as specified by the suppliers. All cell lines were maintained at 37°C, 5% CO2, and routinely passaged. Short-term growth inhibition was measured using the SRB assay as described previously[43] (additional details described in Supplementary Information). […]
Sulforhodamine B (SRB) short-term cytotoxicity assay
Cells were seeded at appropriate densities into the wells of 96 well plates in their corresponding medium and incubated overnight to allow the cells to attach. Subsequently cells were exposed to various concentrations of freshly made solutions of drugs and incubated for 96 h. The cells were subsequently fixed with ice-cold trichloacetic acid (TCA) (10%, w/v) for 30 min and stained with 0.4% SRB dissolved in 1% acetic acid for 15 min.
All incubations were carried out at room temperature except for TCA fixation, which was at 4 °C. […]
After electrophoretic transfer onto nitrocellulose membranes, immunoblots were blocked with 5% milk solution, and next incubated overnight at 4 °C with primary mouse monoclonal antibody reactive to KRAS/p53 (#sc-30/sc-126; Santa Cruz Biotechnology Inc., Santa Cruz, CA, USA). […] Steady-state protein levels were expressed as mean ±SEM from at least three independent experiments.

[3] = Homo sapiens, HCT-116, MTS assay, 72 h, read-out: IC50 HCT116

Row | SMILES | IC50 [1, 3] | IC50 [2] | IC50 ([1]; Homo sapiens, HCT-116, 72 h, read-out: IC50 HCT116, MTS assay, 72 h) | IC50 ([1]; read-out: IC50 HCT116, MTS assay, 72 h)
1 | Cn1cc2c3ccccc3nc-2c2cc(Br)ccc21 [2a, 2-bromo-5-methyl-indolo[3,2-c]quinoline] | 0.14 µM | 4.75 µM | – | –
2 | CCN(CC)CCCNc1ccc2c(c1)c1[nH]c3ccccc3c1c[n+]2C [2d] | 0.46 µM | 1.93 µM | – | –
3 | CCN(CC)CCCNc1ccc2[nH]c3c(c[n+](C)c4ccc(NCCCN(CC)CC)cc34)c2c1.[Cl-] [3d] | 3.46 µM | – | – | –
4 | CCN(CC)CCCNc1ccc2c(c1)[nH]c1c2c[n+](C)c2ccc(NCCCN(CC)CC)cc12.[Cl-] [3e] | 1.8 µM | 7.11 µM | – | –
5 | C[n+]1ccc(-c2c3nc(c(-c4cc[n+](C)cc4)c4ccc([nH]4)c(-c4cc[n+](C)cc4)c4ccc([nH]4)c(-c4cc[n+](C)cc4)c4nc2C=C4)C=C3)cc1 [TMPyP4, reference compound] | – | – | 12.3 µM | 12.4 µM
